Key:
ICR(CD-1) mice = test: Reversal of Phencyclidine (PCP)-Induced Hyperlocomotor Activity in Mice; type: in vivo, mouse; details: i.p.
Excerpt: This assay for Reversal of Phencyclidine (PCP)-Induced Hyperlocomotor Activity in Mice is run substantially as the Reversal of Phencyclidine (PCP)-Induced Hyperlocomotor Activity in Rats assay provided above, using mice instead of rats and with the changes noted below.
Motor activity is monitored by placing individual male, ICR(CD-1), (Harlan, Indianapolis, Ind.) mice in transparent, plastic shoe-box cages of the dimensions 45×25×20 cm, with 0.5 cm depth of wood chips as bedding, and plastic lid on top of the cage. Motor monitors (Kinder Scientific) consist of a rectangular rack of 12 photobeams arranged in an 8×4 formation, (or a high density grouping of 22 in a 15×7 pattern) at a height of 2.5 cm. The shoe box cage is placed inside of these racks, with the racks on a 3 foot high tabletop in an isolated room. A compound of the present invention is dosed (intraperitoneal route, non-prodrug) usually within a range of 0.3-30 mg/kg; though higher doses may be used, 30 minutes prior to a 7.5 mg/kg challenge dose of phencyclidine (PCP). On the test day, mice are placed in the test cage and allowed to acclimate for 45 minutes prior to PCP challenge; mice are monitored for an additional 60 minutes following PCP administration.
Power analyses have determined that 7-8 mice per group are needed to have appropriate statistical power for detecting treatment differences (power=0.8).

Fischer F-344 rats = test: Attenuation of Stress-Induced Hyperthermia in Rats; type: in vivo, rat; details: dose producing 35% reduction in stress-induced hyperthermic response
Excerpt: In many anxiety disorders, hyperthermia occurs as part of the pathology and is considered a symptom of the disease. Compounds which attenuate stress-induced hyperthermia in animals are believed to be useful in treating anxiety disorders in humans. Generalized anxiety disorder is an example of such disorders that may be treated with such compounds. The conventional and minimally-invasive method for analyzing stress-induced hyperthermia is by measuring body temperature, and stress-induced increases in body temperature, via rectal thermometer. Male Fischer F-344 rats (Harlan, Indianapolis, Ind., USA) weighing between 275-350 g are tested. All animals are individually-housed with food and automated water available ad libitum, and maintained on a 12 h light/dark cycle (lights on at 06:00). Animals are fasted for approximately 12-18 hours before the experiment, which is conducted during the light phase. Rats are dosed two hours prior to the experiment by either intraperitoneal (i.p., non-prodrug) or per os (p.o., prodrug) route of administration in a dose volume of 1 mL/kg. […]
After the pretreatment period, rats are taken individually to a brightly lit adjacent room where baseline body temperatures are determined by insertion of a rectal probe lubricated with mineral oil. Body temperature is assessed using a […] […] Ten minutes later a second body temperature measurement is recorded (T2). […]

Sprague-Dawley rats = test: Reversal of Phencyclidine (PCP)-Induced Hyperlocomotor Activity in Rats; type: in vivo; details: Rattus norvegicus
Excerpt: Administration of NMDA receptor antagonists, such as ketamine or phencyclidine (PCP), produces psychotomimetic-like effects in humans that are similar to those symptoms observed in patients with schizophrenia.
Motor activity is monitored by placing individual male, Sprague-Dawley (Harlan, Indianapolis, Ind.) rats in transparent, plastic shoe-box cages of the dimensions 45×25×20 cm, with 1 cm depth of wood chips as bedding, and a metal grill on top of the cage. Motor monitors (Kinder Scientific) consist of a rectangular rack of 12 photobeams arranged in an 8×4 formation, (or a high density grouping of 22 in a 15×7 pattern) at a height of 5 cm, with a second rack (for measuring rearing behaviors) at a height of 15 cm. The shoe box cage is placed inside of these racks, with the racks on a 3 foot high tabletop in an isolated room. A compound of the present invention is dosed (intraperitoneal route (i.p.), non-prodrug) within a range of 0.3-10 mg/kg, 30 minutes prior to a 5 mg/kg challenge dose of phencyclidine (PCP). A compound of the present invention is dosed (oral route, prodrug) within a range of 0.3-30 mg/kg, in overnight fasted rats, 4 hours prior to a 5 mg/kg challenge dose of PCP. On the test day, rats are placed in the test cage and allowed to acclimate for 30 minutes prior to PCP challenge; rats are monitored for an additional 60 minutes following PCP administration.
Data analysis and ED50 calculations are conducted using GraphPad Prism (San Diego, Calif. USA). Power analyses have determined that 8-10 rats per group are needed to have appropriate statistical power for detecting treatment differences (power=0.8). A one-way analysis of variance (ANOVA) with a post-hoc Dunnett's multiple comparison test is conducted on the total 60 minute locomotor activity. ED50 calculations are performed using non-linear regression curve fitting on percent reversal transformed data for each dose.

SMILES	inhibition of PCP evoked ambulations (ICR(CD-1) mice; multiple dose experiment, 10 mg/kg dose) [%]	inhibition of PCP evoked ambulations (ICR(CD-1) mice; single dose experiment of 10 mg/kg) [%]	T35 (Fischer F-344 rats; i.p.) [mg/kg]	ED50 (Sprague-Dawley rats; 0.5 h, i.p., 30 minutes prior to 5 mg/kg PCP) [mg/kg]	T35 (Fischer F-344 rats; p.o.) [mg/kg]	ED50 (Sprague-Dawley rats; p.o., overnight fasted, 4 hours prior to 5 mg/kg PCP) [mg/kg]
N[C@@]1(C(=O)O)C[C@@H](Sc2nnc[nH]2)[C@H]2[C@H](C(=O)O)[C@H]21 [Example 1, (1R,2S,4R,5R,6R)-2-Amino-4-(4H-1,2,4-triazol-3-ylsulfanyl)bicyclo[3.1.0]hexane-2,6-dicarboxylic acid]	81±5	78±9	1.27	1.23	–	–
C[C@H](N)C(=O)N[C@@]1(C(=O)O)C[C@@H](Sc2nnc[nH]2)[C@H]2[C@H](C(=O)O)[C@H]21.Cl [Example 2, (1R,2S,4R,5R,6R)-2-[[(2S)-2-Aminopropanoyl]amino]-4-(1H-1,2,4-triazol-3-ylsulfanyl)bicyclo[3.1.0]hexane-2,6-dicarboxylic acid hydrochloride]	–	–	–	–	16.2	2.94

Source: US8318184B2, “MGLU2 agonists” (Eli Lilly and Company, priority 2009, dated 2012)
